In patent publication US8399452B2, “Dibenzo[b,f][1,4]oxazepin-11-yl-N-hydroxybenzamides as HDAC inhibitors” (Methylgene Inc., priority 2006, dated 2013):
Where two headings read alike, the source gives them in different places.

Target: histone deacetylase (HDAC Enzyme)
Test: Inhibition of Histone Deacetylase Enzymatic Activity (Boc-Lys(Ac)-AMC, Fluor-de-Lys developer)
Assay type: biochemical
Description: The following protocol is used to assay the compounds of the invention.
The mixture is pre-incubated for 5 minutes at room temperature. The reaction is started by bringing the temperature to 37° C. and adding 16 μl substrate. Total reaction volume is 50 μl.
In the Tables 8, 9 and 10, A≦[…]<B≦0.1 μM; 0.1 μM<C≦1 μM; and 1 μM<D≦10 μM.

[1] = read-out: HDAC Inhibtion (IC50 μM) HDAC Enzyme
[2] = Table 10, read-out: HDAC Inhibition (IC50 μM) HDAC Enzyme
[3] = Table 9, read-out: HDAC Inhibition (IC50 μM) HDAC Enzyme

## O=C(NO)c1ccc(C2=Nc3ccccc3N(CCCN3CCOCC3)c3ncccc32)cc1 [(Z)-N-hydroxy-4-(11-(3-morpholinopropyl)-11H-benzo[b]pyrido[2,3-e][1,4]diazepin-5-yl)benzamide]
[1]
  IC50: 0.1 to 1 µM

## CC(C)N1c2ccccc2N=C(c2ccc(C(=O)NO)cc2)c2cccnc21 [(Z)-N-hydroxy-4-(11-isopropyl-11H-benzo[b]pyrido[2,3-e][1,4]diazepin-5-yl)benzamide]
[1]
  IC50: < 0.05 µM

## O=C(CCCCCN1C(=O)CN=C(c2ccccc2)c2ccccc21)NO [(Z)-N-hydroxy-6-(2-oxo-5-phenyl-2,3-dihydro-1H-benzo[e][1,4]diazepin-1-yl)hexanamide]
[2]
  IC50: 0.1 to 1 µM

## O=C(CCCCCCCN1C(=O)CN=C(c2ccccc2)c2ccccc21)NO [(Z)-N-hydroxy-8-(2-oxo-5-phenyl-2,3-dihydro-1H-benzo[e][1,4]diazepin-1-yl)octanamide]
[2]
  IC50: 0.1 to 1 µM

## O=C(NO)c1ccc2c(c1)N=C(c1ccncc1)c1ccccc1O2 [(Z)-N-hydroxy-11-(pyridin-4-yl)dibenzo[b,f][1,4]oxazepine-8-carboxamide]
[1]
  IC50: 0.1 to 1 µM

## O=C(NO)c1cnc(N2CCn3c(nnc3C(F)(F)F)C2)nc1 [N-hydroxy-2-(3-(trifluoromethyl)-5,6-dihydro-[1,2,4]triazolo[4,3-a]pyrazin-7(8H)-yl)pyrimidine-5-carboxamide]
[2]
  IC50: 0.05 to 0.1 µM

## O=C(NO)c1cnc(N2CCn3c(nnc3-c3ccccc3)C2)nc1 [N-hydroxy-2-(3-phenyl-5,6-dihydro-[1,2,4]triazolo[4,3-a]pyrazin-7(8H)-yl)pyrimidine-5-carboxamide]
[2]
  IC50: < 0.05 µM

## O=C(NO)c1cnc(N2CC3CC(CN(c4cc(C(F)(F)F)ccn4)C3)C2)nc1 [N-hydroxy-2-(7-(4-(trifluoromethyl)pyridin-2-yl)-3,7-diazabicyclo[3.3.1]nonan-3-yl)pyrimidine-5-carboxamide]
[3]
  IC50: 0.1 to 1 µM

## O=C(NO)c1cnc(N2C[C@H]3C[C@@H]2CN3c2cc(C(F)(F)F)ccn2)nc1 [N-hydroxy-2-((1R,4R)-5-(4-(trifluoromethyl)pyridin-2-yl)-2,5-diazabicyclo[2.2.1]heptan-2-yl)pyrimidine-5-carboxamide]
[3]
  IC50: < 0.05 µM

## Cc1cccc(N2C[C@H]3C[C@@H]2CN3c2ncc(C(=O)NO)cn2)c1 [N-hydroxy-2-((1R,4R)-5-m-tolyl-2,5-diazabicyclo[2.2.1]heptan-2-yl)pyrimidine-5-carboxamide]
[3]
  IC50: 0.05 to 0.1 µM

## Cc1ccc(N2C[C@H]3C[C@@H]2CN3c2ncc(C(=O)NO)cn2)cc1 [N-hydroxy-2-((1R,4R)-5-p-tolyl-2,5-diazabicyclo[2.2.1]heptan-2-yl)pyrimidine-5-carboxamide]
[3]
  IC50: < 0.05 µM

## O=C(NO)c1cnc(N2C[C@H]3C[C@@]3(c3ccccc3)C2)nc1 [N-hydroxy-2-((1R,5S)-1-phenyl-3-azabicyclo[3.1.0]hexan-3-yl)pyrimidine-5-carboxamide]
[2]
  IC50: 0.1 to 1 µM

## O=C(NO)c1cnc(N2C[C@@H]3C[C@H]2CN3c2ccccc2C(F)(F)F)nc1 [N-hydroxy-2-((1S,4S)-5-(2-(trifluoromethyl)phenyl)-2,5-diazabicyclo[2.2.1]heptan-2-yl)pyrimidine-5-carboxamide]
[3]
  IC50: 0.1 to 1 µM

## O=C(NO)c1cnc(N2C[C@@H]3C[C@H]2CN3c2cc(C(F)(F)F)nc3ccccc23)nc1 [N-hydroxy-2-((1S,4S)-5-(2-(trifluoromethyl)quinolin-4-yl)-2,5-diazabicyclo[2.2.1]heptan-2-yl)pyrimidine-5-carboxamide]
[3]
  IC50: < 0.05 µM

## O=C(NO)c1cnc(N2C[C@@H]3C[C@H]2CN3c2cccc(OC(F)(F)F)c2)nc1 [N-hydroxy-2-((1S,4S)-5-(3-(trifluoromethoxy)phenyl)-2,5-diazabicyclo[2.2.1]heptan-2-yl)pyrimidine-5-carboxamide]
[3]
  IC50: < 0.05 µM

## O=C(NO)c1cnc(N2C[C@@H]3C[C@H]2CN3C(=O)c2cccc(C(F)(F)F)c2)nc1 [N-hydroxy-2-((1S,4S)-5-(3-(trifluoromethyl)benzoyl)-2,5-diazabicyclo[2.2.1]heptan-2-yl)pyrimidine-5-carboxamide]
[3]
  IC50: 0.05 to 0.1 µM

## O=C(NO)c1cnc(N2C[C@@H]3C[C@H]2CN3c2cccc(C(F)(F)F)c2)nc1 [N-hydroxy-2-((1S,4S)-5-(3-(trifluoromethyl)phenyl)-2,5-diazabicyclo[2.2.1]heptan-2-yl)pyrimidine-5-carboxamide]
[3]
  IC50: < 0.05 µM

## O=C(NO)c1cnc(N2C[C@@H]3C[C@H]2CN3c2cccc(C(F)(F)F)c2)s1 [N-hydroxy-2-((1S,4S)-5-(3-(trifluoromethyl)phenyl)-2,5-diazabicyclo[2.2.1]heptan-2-yl)thiazole-5-carboxamide]
[3]
  IC50: < 0.05 µM

## O=C(NO)c1cnc(N2C[C@@H]3C[C@H]2CN3c2cccc(SC(F)(F)F)c2)nc1 [N-hydroxy-2-((1S,4S)-5-(3-(trifluoromethylthio)phenyl)-2,5-diazabicyclo[2.2.1]heptan-2-yl)pyrimidine-5-carboxamide]
[3]
  IC50: < 0.05 µM

## COc1cccc(N2C[C@@H]3C[C@H]2CN3c2ncc(C(=O)NO)cn2)c1 [N-hydroxy-2-((1S,4S)-5-(3-methoxyphenyl)-2,5-diazabicyclo[2.2.1]heptan-2-yl)pyrimidine-5-carboxamide]
[3]
  IC50: < 0.05 µM

## O=C(NO)c1cnc(N2C[C@@H]3C[C@H]2CN3c2ccc(C(F)(F)F)cc2)nc1 [N-hydroxy-2-((1S,4S)-5-(4-(trifluoromethyl)phenyl)-2,5-diazabicyclo[2.2.1]heptan-2-yl)pyrimidine-5-carboxamide]
[3]
  IC50: < 0.05 µM

## O=C(NO)c1cnc(N2C[C@@H]3C[C@H]2CN3c2cc(C(F)(F)F)ccn2)nc1 [N-hydroxy-2-((1S,4S)-5-(4-(trifluoromethyl)pyridin-2-yl)-2,5-diazabicyclo[2.2.1]heptan-2-yl)pyrimidine-5-carboxamide]
[3]
  IC50: < 0.05 µM

## O=C(NO)c1cnc(N2C[C@@H]3C[C@H]2CN3c2nccc(C(F)(F)F)n2)nc1 [N-hydroxy-2-((1S,4S)-5-(4-(trifluoromethyl)pyrimidin-2-yl)-2,5-diazabicyclo[2.2.1]heptan-2-yl)pyrimidine-5-carboxamide]
[3]
  IC50: < 0.05 µM

## O=C(NO)c1cnc(N2C[C@@H]3C[C@H]2CN3c2cncc(C(F)(F)F)c2)nc1 [N-hydroxy-2-((1S,4S)-5-(5-(trifluoromethyl)pyridin-3-yl)-2,5-diazabicyclo[2.2.1]heptan-2-yl)pyrimidine-5-carboxamide]
[3]
  IC50: < 0.05 µM

## O=C(NO)c1cnc(N2C[C@@H]3C[C@H]2CN3c2cccc(C(F)(F)F)n2)nc1 [N-hydroxy-2-((1S,4S)-5-(6-(trifluoromethyl)pyridin-2-yl)-2,5-diazabicyclo[2.2.1]heptan-2-yl)pyrimidine-5-carboxamide]
[3]
  IC50: < 0.05 µM

## O=C(NO)c1cnc(N2C[C@@H]3C[C@H]2CN3C(=O)N2CCCC2)nc1 [N-hydroxy-2-((1S,4S)-5-(pyrrolidine-1-carbonyl)-2,5-diazabicyclo[2.2.1]heptan-2-yl)pyrimidine-5-carboxamide]
[3]
  IC50: 0.05 to 0.1 µM

## Cc1cccc(N2C[C@@H]3C[C@H]2CN3c2ncc(C(=O)NO)cn2)c1 [N-hydroxy-2-((1S,4S)-5-m-tolyl-2,5-diazabicyclo[2.2.1]heptan-2-yl)pyrimidine-5-carboxamide]
[3]
  IC50: < 0.05 µM

## Cc1ccccc1N1C[C@@H]2C[C@H]1CN2c1ncc(C(=O)NO)cn1 [N-hydroxy-2-((1S,4S)-5-o-tolyl-2,5-diazabicyclo[2.2.1]heptan-2-yl)pyrimidine-5-carboxamide]
[3]
  IC50: 0.05 to 0.1 µM

## Cc1ccc(N2C[C@@H]3C[C@H]2CN3c2ncc(C(=O)NO)cn2)cc1 [N-hydroxy-2-((1S,4S)-5-p-tolyl-2,5-diazabicyclo[2.2.1]heptan-2-yl)pyrimidine-5-carboxamide]
[3]
  IC50: < 0.05 µM

## O=C(NO)c1cnc(N2C[C@@H]3C[C@H]2CN3c2ccccc2)nc1 [N-hydroxy-2-((1S,4S)-5-phenyl-2,5-diazabicyclo[2.2.1]heptan-2-yl)pyrimidine-5-carboxamide]
[3]
  IC50: 0.05 to 0.1 µM

## CN1CCc2[nH]c3ccc(C(=O)NO)cc3c2C1 [N-hydroxy-2-methyl-2,3,4,5-tetrahydro-1H-pyrido[4,3-b]indole-8-carboxamide]
[2]
  IC50: 1 to 10 µM

## O=C(CCc1ccc(CN2C(=O)c3ccccc3Oc3ccccc32)cc1)NO [N-hydroxy-3-(4-((11-oxodibenzo[b,f][1,4]oxazepin-10(11H)-yl)methyl)phenyl)propanamide]
[2]
  IC50: 0.1 to 1 µM

## O=C(NO)c1ccc(C#CCN2C(=O)c3ccccc3Oc3ccccc32)cc1 [N-hydroxy-4-(3-(11-oxodibenzo[b,f][1,4]oxazepin-10(11H)-yl)prop-1-ynyl)benzamide]
[2]
  IC50: < 0.05 µM

## O=C(NO)c1ccc(CCCN2C(=O)c3ccccc3Oc3ccccc32)cc1 [N-hydroxy-4-(3-(11-oxodibenzo[b,f][1,4]oxazepin-10(11H)-yl)propyl)benzamide]
[2]
  IC50: 0.05 to 0.1 µM

## COc1cccc(N2CC3CC2CN3c2ccc(C(=O)NO)cc2)c1 (stereo not shown) [N-hydroxy-4-(5-(3-methoxyphenyl)-2,5-diazabicyclo[2.2.1]heptan-2-yl)benzamide]
[3]
  IC50: 0.1 to 1 µM

## Cc1cccc(N2CC3CC2CN3c2ccc(C(=O)NO)cc2)c1 (stereo not shown) [N-hydroxy-4-(5-m-tolyl-2,5-diazabicyclo[2.2.1]heptan-2-yl)benzamide]
[3]
  IC50: 0.1 to 1 µM

## CN1c2ccccc2Oc2ccccc2C1c1ccc(C(=O)NO)cc1 (stereo not shown) [N-hydroxy-4-(10-methyl-10,11-dihydrodibenzo[b,f][1,4]oxazepin-11-yl)benzamide]
[1]
  IC50: 0.1 to 1 µM

## O=C(NO)c1ccc(N2C(=O)c3ccccc3Oc3ccccc32)cc1 [N-hydroxy-4-(11-oxodibenzo[b,f][1,4]oxazepin-10(11H)-yl)benzamide]
[2]
  IC50: 0.1 to 1 µM

## O=C(NO)c1ccc(N2C[C@H]3C[C@@H]2CN3c2cc(C(F)(F)F)ccn2)cc1 [N-hydroxy-4-((1R,4R)-5-(4-(trifluoromethyl)pyridin-2-yl)-2,5-diazabicyclo[2.2.1]heptan-2-yl)benzamide]
[3]
  IC50: 1 to 10 µM

## Cc1cccc(N2C[C@H]3C[C@@H]2CN3c2ccc(C(=O)NO)cc2)c1 [N-hydroxy-4-((1R,4R)-5-m-tolyl-2,5-diazabicyclo[2.2.1]heptan-2-yl)benzamide]
[3]
  IC50: 0.1 to 1 µM
